In US11566007B2, “Ras inhibitors” (Revolution Medicines, Inc., priority 2019, dated 2023):
Read-outs that look alike come from different tables or passages of the source.

How the values were obtained:
NRAS G12C = NRAS G12C (Homo sapiens (Human), UniProt P01111+P62937, G12C); assay: Ras-Raf (BRAF RBD) disruption / FRET / MOA assay, NRAS G12C; format: biochemical
Outline: (§1)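 Compounds, top final concentration 30 μM in 10-point 3-fold series, incubated 3 hours at 25° C with nucleotide-loaded Ras, cyclophilin A and BRAF RBD.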

NRAS WT = NRAS WT (Homo sapiens (Human), UniProt P01111+P62937); assay: Ras-Raf (BRAF RBD) disruption / FRET / MOA assay, NRAS WT; format: biochemical; settings: read-out: IC50* NRAS WT FRET data
Outline: (§2)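 TR-FRET disruption of nucleotide-loaded Ras binding to BRAF RBD via compound-driven ternary complex with cyclophilin A. Compound as 10-point 3-fold series from 30 μM final, 3 h at 25° C, then anti-His Eu-W1024 (10 nM) and anti-GST allophycocyanin (50 nM) for 1.5 h. IC50 from decreased FRET ratio versus DMSO.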

NRAS Q61R = NRAS Q61R (Homo sapiens (Human), UniProt P01111+P62937, Q61R); assay: Ras-Raf (BRAF RBD) disruption / FRET / MOA assay, NRAS Q61R; format: biochemical; settings: NRAS Q61R; Ras-Raf disruption/FRET/MOA assay; read-out: IC50* NRAS Q61R FRET data
Outline: as §2

K-Ras G12C = K-Ras G12C (Homo sapiens (Human), UniProt P01116+P62937, G12C); assay: Ras-Raf (BRAF RBD) disruption / FRET / MOA assay, KRAS G12C; format: biochemical; settings: KRAS G12C, Ras-Raf disruption/FRET/MOA assay
Outline: as §1

[1] = tested on: NCI-H358 cells (K-Ras G12C); assay: Potency assay: pERK in NCI-H358 cells; format: cell-based, human; settings: Homo sapiens, NCI-H358; H358 KRAS G12C; read-out: pERK EC50
Outline: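 pERK decrease read by AlphaLISA SureFire p-ERK1/2 or In-Cell Western after 4 h compound exposure at 37 °C, 5% CO2.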

KRAS G12V = KRAS G12V (Homo sapiens (Human), UniProt P01116+P62937, G12V); assay: Ras-Raf (BRAF RBD) disruption / FRET / MOA assay, KRAS G12V; format: biochemical
Outline: as §1

[2] = read-out: IC50* NRAS G12C FRET data
[3] = read-out: IC50* KRAS G12C FRET data
[4] = read-out: IC50* KRAS G12V FRET data

Chain of NRAS WT (P01111 whole entry): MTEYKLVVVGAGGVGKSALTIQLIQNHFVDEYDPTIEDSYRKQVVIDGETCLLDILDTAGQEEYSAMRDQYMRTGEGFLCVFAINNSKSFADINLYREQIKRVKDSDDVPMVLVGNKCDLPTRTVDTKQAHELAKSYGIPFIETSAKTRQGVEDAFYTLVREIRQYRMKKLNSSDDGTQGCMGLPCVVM
Chain of NRAS WT (P62937 whole entry): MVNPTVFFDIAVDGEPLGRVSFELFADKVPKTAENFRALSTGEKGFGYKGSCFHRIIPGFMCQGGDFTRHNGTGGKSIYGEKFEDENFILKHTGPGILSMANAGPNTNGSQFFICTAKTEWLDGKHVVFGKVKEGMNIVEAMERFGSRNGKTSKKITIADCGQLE
Chain of K-Ras G12C (P01116-2 other isoform, or with tags, fused parts or gaps G12C): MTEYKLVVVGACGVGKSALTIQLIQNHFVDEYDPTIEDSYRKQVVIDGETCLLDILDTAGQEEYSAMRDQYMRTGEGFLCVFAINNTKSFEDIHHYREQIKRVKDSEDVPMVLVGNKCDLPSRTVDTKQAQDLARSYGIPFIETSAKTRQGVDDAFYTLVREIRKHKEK
Chain of K-Ras G12C (P62937 whole entry): as the sequence (P62937 whole entry) above
Chain of NRAS Q61R (P01111 whole entry Q61R): as the sequence (P01111 whole entry) above, with Q61R counted along it
Chain of NRAS Q61R (P62937 whole entry): as the sequence (P62937 whole entry) above
Chain of KRAS G12V (P01116-2 other isoform, or with tags, fused parts or gaps G12V): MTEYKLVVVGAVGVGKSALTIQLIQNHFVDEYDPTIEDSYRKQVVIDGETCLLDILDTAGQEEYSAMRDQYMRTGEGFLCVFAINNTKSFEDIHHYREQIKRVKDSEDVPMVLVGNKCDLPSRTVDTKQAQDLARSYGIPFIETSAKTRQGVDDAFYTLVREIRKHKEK
Chain of KRAS G12V (P62937 whole entry): as the sequence (P62937 whole entry) above
Chain of NRAS G12C (P01111 whole entry G12C): as the sequence (P01111 whole entry) above, with G12C counted along it
Chain of NRAS G12C (P62937 whole entry): as the sequence (P62937 whole entry) above

| SMILES | IC50 (NRAS G12C; [2]) [nM] | IC50 (NRAS WT) [nM] | IC50 (NRAS Q61R) [nM] | IC50 (K-Ras G12C; [3]) [nM] | EC50 [1] [nM] | IC50 (KRAS G12V; [4]) [nM] | IC50 (NRAS G12C; IC50* NRAS G12C FRET data) [nM] | IC50 (K-Ras G12C; IC50* KRAS G12C FRET data) [nM] | IC50 (KRAS G12V; IC50* KRAS G12V FRET data) [nM] |
| --- | --- | --- | --- | --- | --- | --- | --- | --- | --- |
| C=CC(=O)N1CC[C@H](C(=O)N(C)[C@H](C(=O)N[C@H]2Cc3nc(cs3)-c3ccc4c(c3)c(c(-c3cccnc3[C@H](C)OC)n4CC(F)(F)F)CC(C)(C)COC(=O)[C@@H]3CCCN(N3)C2=O)C(C)C)C1 (atropisomer, axis not shown) [Example A502] | 100 to 1000 | 100 to 1000 | 100 to 1000 | 100 to 1000 | < 5000 | 1000 to 10000 | – | – | – |
| C=CC(=O)N1CC[C@H](C(=O)N(C)[C@H](C(=O)N[C@H]2Cc3cc(CF)cc(c3)-c3ccc4c(c3)c(c(-c3cccnc3[C@H](C)OC)n4CC)CC(C)(C)COC(=O)[C@@H]3CCCN(N3)C2=O)C(C)C)C1 (atropisomer, axis not shown) [Example A503] | 10 to 100 | 1000 to 10000 | 1000 to 10000 | 10 to 100 | < 5000 | 1000 to 10000 | – | – | – |
| C=CC(=O)N1CC[C@H](C(=O)N(C)[C@H](C(=O)N[C@H]2Cc3cccc(c3)-c3ccc4c(c3)c(c(-c3cc(CN(C)C)cnc3[C@H](C)OC)n4CC)CC(C)(C)COC(=O)[C@@H]3CCCN(N3)C2=O)C(C)C)C1 (atropisomer, axis not shown) [Example A522] | 100 to 1000 | 1000 to 10000 | 1000 to 10000 | 100 to 1000 | < 5000 | 1000 to 10000 | – | – | – |
| C=CC(=O)N1CCO[C@H]2CN(C(=O)N(C)[C@H](C(=O)N[C@H]3Cc4cc(C(F)F)cc(n4)-c4ccc5c(c4)c(c(-c4cccnc4[C@H](C)OC)n5CC(F)(F)F)CC(C)(C)COC(=O)[C@@H]4CCCN(N4)C3=O)C(C)C)C[C@H]21 (atropisomer, axis not shown) [Example A540] | – | 1000 to 10000 | 1000 to 10000 | – | < 5000 | – | 100 to 1000 | 100 to 1000 | 1000 to 10000 |
| C=CC(=O)N1CCO[C@@H]2CN(C(=O)N(C)[C@H](C(=O)N[C@H]3Cc4nc(cs4)-c4ccc5c(c4)c(c(-c4cccnc4[C@H](C)OC)n5CC)CC(C)(C)COC(=O)[C@@H]4CCCN(N4)C3=O)C(C)C)C[C@H]21 (atropisomer, axis not shown) [Example A543] | < 10 | 100 to 1000 | 100 to 1000 | < 10 | < 5000 | 100 to 1000 | – | – | – |
| C=CC(=O)N1CCO[C@H]2CN(C(=O)N(C)[C@H](C(=O)N[C@H]3Cc4nc(cs4)-c4ccc5c(c4)c(c(-c4cccnc4[C@H](C)OC)n5CC)CC(C)(C)COC(=O)[C@@H]4CCCN(N4)C3=O)C(C)C)C[C@@H]21 (atropisomer, axis not shown) [Example A544] | < 10 | 100 to 1000 | 100 to 1000 | < 10 | < 5000 | 100 to 1000 | – | – | – |
| C=CC(=O)N1CCOC2(CCN(C(=O)N(C)[C@H](C(=O)N[C@H]3Cc4nsc(n4)-c4ccc5c(c4)c(c(-c4cccnc4[C@H](C)OC)n5CC)CC(C)(C)COC(=O)[C@@H]4CCCN(N4)C3=O)C(C)C)CC2)C1 (atropisomer, axis not shown) [Example A545] | 10 to 100 | 100 to 1000 | 100 to 1000 | 10 to 100 | < 5000 | 100 to 1000 | – | – | – |
| C=CC(=O)N1CC[C@@H]2[C@H]1CN2C(=O)N(C)[C@H](C(=O)N[C@H]1Cc2nc(cs2)-c2ccc3c(c2)c(c(-c2cccnc2[C@H](C)OC)n3CC)CC(C)(C)COC(=O)[C@@H]2CCCN(N2)C1=O)C(C)C (atropisomer, axis not shown) [Example A546] | 100 to 1000 | 100 to 1000 | 100 to 1000 | 100 to 1000 | < 5000 | 100 to 1000 | – | – | – |
| CCn1c(-c2cccnc2[C@H](C)OC)c2c3cc(ccc31)-c1cccc(c1)C[C@H](NC(=O)[C@H](C(C)C)N1CC[C@@]3(CCN(C(=O)C#C[C@H]4COCCN4C)C3)C1=O)C(=O)N1CCC[C@H](N1)C(=O)OCC(C)(C)C2 (atropisomer, axis not shown) [Example A551] | < 10 | 1000 to 10000 | 1000 to 10000 | < 10 | < 5000 | 1000 to 10000 | – | – | – |
| CCn1c(-c2cccnc2[C@H](C)OC)c2c3cc(ccc31)-c1cccc(c1)C[C@H](NC(=O)[C@H](C(C)C)N1CO[C@@]3(CCN(C(=O)/C=C/CN(C)C)C3)C1=O)C(=O)N1CCC[C@H](N1)C(=O)OCC(C)(C)C2 (atropisomer, axis not shown) [Example A558] | 10 to 100 | 100 to 1000 | 1000 to 10000 | 10 to 100 | < 5000 | 1000 to 10000 | – | – | – |
| CO[C@@H](COC1CN(C(=O)C#CC(C)(C)N(C)C)C1)C(=O)N[C@H]1Cc2coc(n2)-c2ccc3c(c2)c(c(-c2cccnc2[C@H](C)OC)n3CC(F)(F)F)CC(C)(C)COC(=O)[C@@H]2CCCN(N2)C1=O (atropisomer, axis not shown) [Example A579] | < 10 | 1000 to 10000 | > 10000 | < 10 | < 5000 | 1000 to 10000 | – | – | – |
| C=CC(=O)N1CCO[C@H]2CCN(C(=O)N(C)[C@H](C(=O)N[C@H]3Cc4nc(cs4)-c4ccc5c(c4)c(c(-c4cccnc4[C@H](C)OC)n5CC)CC(C)(C)COC(=O)[C@@H]4CCCN(N4)C3=O)C(C)C)C[C@H]21 (atropisomer, axis not shown) [Example A580] | 10 to 100 | 100 to 1000 | 100 to 1000 | 10 to 100 | < 5000 | 100 to 1000 | – | – | – |
| C=CC(=O)NCCN1CCN(C(=O)N(C)[C@H](C(=O)N[C@H]2Cc3nc(cs3)-c3ccc4c(c3)c(c(-c3cccnc3[C@H](C)OC)n4CC)CC(C)(C)COC(=O)[C@@H]3CCCN(N3)C2=O)C(C)C)CC1 (atropisomer, axis not shown) [Example A582] | 10 to 100 | 100 to 1000 | 100 to 1000 | 100 to 1000 | < 5000 | 100 to 1000 | – | – | – |
| CCn1c(-c2cccnc2[C@H](C)OC)c2c3cc(ccc31)-c1cccc(c1)C[C@H](NC(=O)[C@@H](CO[C@@H]1CCN(C(=O)C#CC(C)(C)N(C)C)C1)C(C)C)C(=O)N1CCC[C@H](N1)C(=O)OCC(C)(C)C2 (atropisomer, axis not shown) [Example A584] | 10 to 100 | 1000 to 10000 | > 10000 | 10 to 100 | < 5000 | 1000 to 10000 | – | – | – |
| CCn1c(-c2cccnc2[C@H](C)OC)c2c3cc(ccc31)-c1cc(CF)cc(c1)C[C@H](NC(=O)[C@@H](COC1CN(C(=O)C#CC(C)(C)N(C)C)C1)C(C)C)C(=O)N1CCC[C@H](N1)C(=O)OCC(C)(C)C2 (atropisomer, axis not shown) [Example A587] | 10 to 100 | > 10000 | > 10000 | 10 to 100 | < 5000 | > 10000 | – | – | – |
| CO[C@@H](C)c1ncccc1-c1c2c3cc(ccc3n1CC(F)(F)F)-c1cc(CF)cc(c1)C[C@H](NC(=O)[C@@H](COC1CN(C(=O)C#CC(C)(C)N(C)C)C1)C(C)C)C(=O)N1CCC[C@H](N1)C(=O)OCC(C)(C)C2 (atropisomer, axis not shown) [Example A589] | 10 to 100 | 1000 to 10000 | > 10000 | 10 to 100 | < 5000 | > 10000 | – | – | – |
